Measured values: patent publication US10251395B2, “Substituted furano-/thienocycloalkylamino-2-pyrimidine derivatives and use thereof for controlling undesired plant growth” (Bayer CropScience Aktiengesellschaft, priority 2015, dated 2019)

How the values were obtained:
logP (HCOOH) = assay type: physicochemical; settings: HCOOH
Excerpt: Table 2 (physicochemical characterization of selected synthesis examples)

Echinochloa crus-galli [1] = assay: Post-emergence herbicidal effect; assay type: in vivo; settings: 320 g/ha, assessed visually after about 3 weeks vs untreated controls
Outline: (§1)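 Sow in sandy loam; grow in greenhouse 2–3 wk; spray one-leaf plants with WP or EC suspension/emulsion (600–800 L/ha water, 0.2% wetter); hold ~3 wk under optimal conditions; rate visually vs untreated (0–100%).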

Matricaria inodora [2] = assay: Post-emergence herbicidal effect; assay type: in vivo; settings: assessed visually after about 3 weeks vs untreated controls
Outline: as §1

Amaranthus retroflexus [3] = assay: Post-emergence herbicidal effect; assay type: in vivo; settings: assessed visually after about 3 weeks vs untreated controls
Outline: as §1

Viola tricolor [4] = assay: Post-emergence herbicidal effect; assay type: in vivo; settings: assessed visually after about 3 weeks vs untreated controls
Outline: as §1

Veronica persica [5] = assay: Post-emergence herbicidal effect; assay type: in vivo; settings: assessed visually after about 3 weeks vs untreated controls
Outline: as §1

Stellaria media [6] = assay: Post-emergence herbicidal effect; assay type: in vivo; settings: assessed visually after about 3 weeks vs untreated controls
Outline: as §1

Polygonum convolvulus [7] = assay: Pre-emergence herbicidal effect; assay type: in vivo; settings: scored visually after 3 weeks
Outline: (§2)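 Greenhouse pre-emergence test: compound sprayed onto covering soil over sown seeds, assessed by eye after 3 weeks. Scale runs from 0% (like control) to 100% (plants died).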

Echinochloa crus-galli [8] = assay: Pre-emergence herbicidal effect; assay type: in vivo; settings: scored visually after 3 weeks
Outline: as §2

Matricaria inodora [9] = assay: Pre-emergence herbicidal effect; assay type: in vivo; settings: scored visually after 3 weeks
Outline: as §2

Amaranthus retroflexus [10] = assay: Pre-emergence herbicidal effect; assay type: in vivo; settings: scored visually after 3 weeks
Outline: as §2

Viola tricolor [11] = assay: Pre-emergence herbicidal effect; assay type: in vivo; settings: scored visually after 3 weeks
Outline: as §2

Cyperus esculentus = assay: Pre-emergence herbicidal effect; assay type: in vivo; settings: Dosage 320 g/ha, scored visually after 3 weeks
Outline: as §2

Lolium multiflorum = assay: Pre-emergence herbicidal effect; assay type: in vivo; settings: Dosage 320 g/ha, scored visually after 3 weeks
Outline: as §2

Alopecurus myosuroides = assay: Pre-emergence herbicidal effect; assay type: in vivo; settings: scored visually after 3 weeks
Outline: as §2

Setaria viridis [12] = assay: Pre-emergence herbicidal effect; assay type: in vivo; settings: scored visually after 3 weeks
Outline: as §2

Veronica persica [13] = assay: Pre-emergence herbicidal effect; assay type: in vivo; settings: scored visually after 3 weeks
Outline: as §2

Stellaria media [14] = assay: Pre-emergence herbicidal effect; assay type: in vivo; settings: scored visually after 3 weeks
Outline: as §2

Polygonum convolvulus [15] = assay: Post-emergence herbicidal effect; assay type: in vivo; settings: 320 g/ha, assessed visually after about 3 weeks vs untreated controls
Outline: as §1

Abutilon theophrasti = assay: Post-emergence herbicidal effect; assay type: in vivo; settings: 320 g/ha, assessed visually after about 3 weeks vs untreated controls
Outline: as §1

Setaria viridis [16] = assay: Post-emergence herbicidal effect; assay type: in vivo; settings: 320 g/ha, assessed visually after about 3 weeks vs untreated controls
Outline: as §1

Structure (SMILES): O=S1(=O)CCCc2nc(N[C@@H]3CCCc4sccc43)ncc21 [compound 73]
- logP (HCOOH) (logP (HCOOH)): oily; logP (HCOOH): 2.38;
- post-emergence efficacy ECHCG (Echinochloa crus-galli [1]): 100%
- post-emergence efficacy MATIN (Matricaria inodora [2]; 80 g/ha): 100%
- post-emergence efficacy MATIN (Matricaria inodora [2]; 320 g/ha): 100%
- post-emergence efficacy AMARE (Amaranthus retroflexus [3]; 320 g/ha): 80%
- post-emergence efficacy VIOTR (Viola tricolor [4]; 320 g/ha): 60%
- post-emergence efficacy VERPE (Veronica persica [5]; 80 g/ha): 80%
- post-emergence efficacy VERPE (Veronica persica [5]; 320 g/ha): 100%
- post-emergence efficacy STEME (Stellaria media [6]; 80 g/ha): 90%
- post-emergence efficacy STEME (Stellaria media [6]; 320 g/ha): 100%
- POLCO pre-emergence efficacy (herbicidal activity) (Polygonum convolvulus [7]; Dosage 80 g/ha): 100%
- POLCO pre-emergence efficacy (herbicidal activity) (Polygonum convolvulus [7]; Dosage 320 g/ha): 100%
- ECHCG pre-emergence efficacy (herbicidal activity) (Echinochloa crus-galli [8]; Dosage 80 g/ha): 100%
- ECHCG pre-emergence efficacy (herbicidal activity) (Echinochloa crus-galli [8]; Dosage 320 g/ha): 100%
- MATIN pre-emergence efficacy (herbicidal activity) (Matricaria inodora [9]; Dosage 80 g/ha): 100%
- MATIN pre-emergence efficacy (herbicidal activity) (Matricaria inodora [9]; Dosage 320 g/ha): 100%
- AMARE pre-emergence efficacy (herbicidal activity) (Amaranthus retroflexus [10]; Dosage 80 g/ha): 100%
- AMARE pre-emergence efficacy (herbicidal activity) (Amaranthus retroflexus [10]; Dosage 320 g/ha): 100%
- VIOTR pre-emergence efficacy (herbicidal activity) (Viola tricolor [11]; Dosage 320 g/ha): 100%
- CYPES pre-emergence efficacy (herbicidal activity) (Cyperus esculentus): 100%
- LOLMU pre-emergence efficacy (herbicidal activity) (Lolium multiflorum): 100%
- ALOMY pre-emergence efficacy (herbicidal activity) (Alopecurus myosuroides; Dosage 80 g/ha): 80%
- ALOMY pre-emergence efficacy (herbicidal activity) (Alopecurus myosuroides; Dosage 320 g/ha): 90%
- SETVI pre-emergence efficacy (herbicidal activity) (Setaria viridis [12]; Dosage 80 g/ha): 80%
- SETVI pre-emergence efficacy (herbicidal activity) (Setaria viridis [12]; Dosage 320 g/ha): 100%
- VERPE pre-emergence efficacy (herbicidal activity) (Veronica persica [13]; Dosage 80 g/ha): 100%
- VERPE pre-emergence efficacy (herbicidal activity) (Veronica persica [13]; Dosage 320 g/ha): 100%
- STEME pre-emergence efficacy (herbicidal activity) (Stellaria media [14]; Dosage 80 g/ha): 100%
- STEME pre-emergence efficacy (herbicidal activity) (Stellaria media [14]; Dosage 320 g/ha): 100%

Structure (SMILES): Cc1cc2c(s1)CCCC2Nc1nc(N)c([S+](C)[O-])c(C(F)F)n1 (racemic) [compound 264]
- post-emergence efficacy POLCO (Polygonum convolvulus [15]): 80%
- post-emergence efficacy ECHCG (Echinochloa crus-galli [1]): 90%
- post-emergence efficacy ABUTH (Abutilon theophrasti): 90%
- post-emergence efficacy MATIN (Matricaria inodora [2]; 80 g/ha): 80%
- post-emergence efficacy MATIN (Matricaria inodora [2]; 320 g/ha): 90%
- post-emergence efficacy AMARE (Amaranthus retroflexus [3]; 80 g/ha): 90%
- post-emergence efficacy AMARE (Amaranthus retroflexus [3]; 320 g/ha): 90%
- post-emergence efficacy VIOTR (Viola tricolor [4]; 80 g/ha): 90%
- post-emergence efficacy VIOTR (Viola tricolor [4]; 320 g/ha): 90%
- post-emergence efficacy SETVI (Setaria viridis [16]): 80%
- post-emergence efficacy VERPE (Veronica persica [5]; 80 g/ha): 90%
- post-emergence efficacy VERPE (Veronica persica [5]; 320 g/ha): 90%
- post-emergence efficacy STEME (Stellaria media [6]; 80 g/ha): 100%
- post-emergence efficacy STEME (Stellaria media [6]; 320 g/ha): 100%
- POLCO pre-emergence efficacy (herbicidal activity) (Polygonum convolvulus [7]; Dosage 320 g/ha): 100%
- ECHCG pre-emergence efficacy (herbicidal activity) (Echinochloa crus-galli [8]; Dosage 320 g/ha): 100%
- MATIN pre-emergence efficacy (herbicidal activity) (Matricaria inodora [9]; Dosage 80 g/ha): 90%
- MATIN pre-emergence efficacy (herbicidal activity) (Matricaria inodora [9]; Dosage 320 g/ha): 100%
- AMARE pre-emergence efficacy (herbicidal activity) (Amaranthus retroflexus [10]; Dosage 80 g/ha): 100%
- AMARE pre-emergence efficacy (herbicidal activity) (Amaranthus retroflexus [10]; Dosage 320 g/ha): 100%
- VIOTR pre-emergence efficacy (herbicidal activity) (Viola tricolor [11]; Dosage 80 g/ha): 100%
- VIOTR pre-emergence efficacy (herbicidal activity) (Viola tricolor [11]; Dosage 320 g/ha): 100%
- CYPES pre-emergence efficacy (herbicidal activity) (Cyperus esculentus): 100%
- LOLMU pre-emergence efficacy (herbicidal activity) (Lolium multiflorum): 60%
- ALOMY pre-emergence efficacy (herbicidal activity) (Alopecurus myosuroides; Dosage 80 g/ha): 60%
- ALOMY pre-emergence efficacy (herbicidal activity) (Alopecurus myosuroides; Dosage 320 g/ha): 60%
- SETVI pre-emergence efficacy (herbicidal activity) (Setaria viridis [12]; Dosage 80 g/ha): 80%
- SETVI pre-emergence efficacy (herbicidal activity) (Setaria viridis [12]; Dosage 320 g/ha): 90%
- VERPE pre-emergence efficacy (herbicidal activity) (Veronica persica [13]; Dosage 80 g/ha): 100%
- VERPE pre-emergence efficacy (herbicidal activity) (Veronica persica [13]; Dosage 320 g/ha): 100%
- STEME pre-emergence efficacy (herbicidal activity) (Stellaria media [14]; Dosage 80 g/ha): 100%
- STEME pre-emergence efficacy (herbicidal activity) (Stellaria media [14]; Dosage 320 g/ha): 100%
